Laboratory results taken from ChEMBL document CHEMBL5346945, “Discovery and Optimization of the First ATP Competitive Type-III c-MET Inhibitor” (J Med Chem, 2023).

What was measured:
[1] = Metabolic stability in Han Wistar rat hepatocytes assessed as intrinsic clearance measured per million cells at 1 uM measured at 0.5 to 2 hrs by LC-MS/MS analysis; format: ADME, cell-based, Hepatocyte; details: time 0.5-2 hrs, read-out: CLH
[2] = biological target: T1, Hepatocyte growth factor receptor (Homo sapiens, UniProt P08581); test: Binding affinity to wild type c-MET (unknown origin) assessed as dissociation constant measured for 120 sec by SPR analysis
T1 sequence (P08581 whole entry): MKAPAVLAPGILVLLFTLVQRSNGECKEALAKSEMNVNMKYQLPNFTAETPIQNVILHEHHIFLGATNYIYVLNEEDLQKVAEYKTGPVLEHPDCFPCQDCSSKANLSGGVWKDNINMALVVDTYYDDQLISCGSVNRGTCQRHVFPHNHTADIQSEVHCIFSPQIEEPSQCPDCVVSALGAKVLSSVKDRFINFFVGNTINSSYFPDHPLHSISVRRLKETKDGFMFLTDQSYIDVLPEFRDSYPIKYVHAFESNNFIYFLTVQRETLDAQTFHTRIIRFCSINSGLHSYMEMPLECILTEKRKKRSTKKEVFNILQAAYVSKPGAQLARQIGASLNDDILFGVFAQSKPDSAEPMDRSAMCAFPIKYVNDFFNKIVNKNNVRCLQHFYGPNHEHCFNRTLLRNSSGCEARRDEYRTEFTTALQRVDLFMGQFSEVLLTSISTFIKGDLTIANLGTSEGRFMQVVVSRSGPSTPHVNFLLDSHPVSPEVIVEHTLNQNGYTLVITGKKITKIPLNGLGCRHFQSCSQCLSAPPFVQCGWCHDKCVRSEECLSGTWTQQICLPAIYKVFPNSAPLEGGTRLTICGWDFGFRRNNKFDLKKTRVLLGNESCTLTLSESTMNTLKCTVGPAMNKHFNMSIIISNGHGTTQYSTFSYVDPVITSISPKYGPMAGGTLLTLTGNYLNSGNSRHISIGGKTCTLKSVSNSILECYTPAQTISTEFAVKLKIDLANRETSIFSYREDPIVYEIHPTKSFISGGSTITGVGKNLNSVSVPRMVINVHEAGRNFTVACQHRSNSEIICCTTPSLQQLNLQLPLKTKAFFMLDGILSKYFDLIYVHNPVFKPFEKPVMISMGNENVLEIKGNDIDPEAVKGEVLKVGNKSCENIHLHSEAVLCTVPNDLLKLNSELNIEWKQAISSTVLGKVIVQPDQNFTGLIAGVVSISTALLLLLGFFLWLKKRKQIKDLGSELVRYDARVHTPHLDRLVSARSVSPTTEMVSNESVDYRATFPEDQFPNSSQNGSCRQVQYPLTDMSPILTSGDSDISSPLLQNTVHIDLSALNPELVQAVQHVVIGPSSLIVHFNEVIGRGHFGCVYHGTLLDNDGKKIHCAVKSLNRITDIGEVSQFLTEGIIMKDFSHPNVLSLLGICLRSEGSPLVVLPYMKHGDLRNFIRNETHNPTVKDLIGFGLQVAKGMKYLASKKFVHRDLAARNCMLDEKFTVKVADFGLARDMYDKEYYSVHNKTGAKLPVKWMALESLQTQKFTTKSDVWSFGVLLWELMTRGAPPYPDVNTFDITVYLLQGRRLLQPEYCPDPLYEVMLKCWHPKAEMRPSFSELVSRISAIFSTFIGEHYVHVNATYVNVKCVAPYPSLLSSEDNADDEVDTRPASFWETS

[3] = Lipophilicity, logD of compound in octanol and water at pH 7.4 measured by shake-flask method; format: physicochemical
[4] = Metabolic stability in human liver microsomes assessed as intrinsic clearance at 1 uM preincubated with NADPH for 8 mins followed by compound addition measured at 0.5 to 30 mins by LC-MS/MS analysis; format: ADME, Microsome; details: time 0.5-30 min, read-out: CLH
[5] = biological target: T1, Hepatocyte growth factor receptor; test: Inhibition of wild type c-MET (unknown origin) using ATP and poly(L-glutamic acid-L-tyrosine) as substrate incubated for 60 mins measured by ADP-Glo kinase assay
[6] = biological target: T1, Hepatocyte growth factor receptor; test: Inhibition of wild type c-MET in human NCI-H1993 cells incubated for 4 hrs measured by HTRF assay; format: cell-based
[7] = Permeability across basolateral to apical side in MDCK cells at 10 uM by LC-MS/MS analysis; format: ADME, cell-based, Canis lupus familiaris; details: dog, read-out: permeability
[8] = Metabolic stability in human hepatocytes assessed as intrinsic clearance measured per million cells at 1 uM measured at 0.5 to 2 hrs by LC-MS/MS analysis; format: ADME, cell-based, Hepatocyte; details: time 0.5-2 hrs, read-out: CLH
[9] = Oral bioavailability in Han Wistar rat plasma at 1 mg/kg, measured for 1 to 24 hrs by LC-MS/MS analysis; format: ADME, organism-based; details: in vivo, time 1-24 hrs
[10] = Volume of distribution at steady state in Han Wistar rat plasma at 1 mg/kg, po or 0.5 mg/kg, iv measured for 1 to 24 hrs by LC-MS/MS analysis; format: ADME, organism-based; details: in vivo, time 1-24 hrs
[11] = Ratio of drug concentration in brain to plasma of Han Wistar rat plasma at 2 micromol/kg per hour measured after 4 hrs by LC-MS/MS analysis; format: ADME; details: dose 2 µmol/kg

Row | SMILES | hepatocyte CLint at 1 µM [1] | Kd [2] | logD [3] | microsomal CLint at 1 µM [4] | IC50 [5] | EC50 [6] | Papp B→A at 10 µM [7] | hepatocyte CLint at 1 µM [8] | F [9] | Vdss [10] | K(p,uu,brain) [11]
1 | CC(c1ccccc1)n1cc(-c2ccccn2)c(=O)[nH]c1=O (stereo not drawn) | 300 µL/min/1e6 cells | 4.5 µM | 2.2 | 12.6 µL/min/mg |  |  |  |  |  |  | 
2 | CC(c1ccccc1)n1cc(-c2cc(F)cc3cn[nH]c23)c(=O)[nH]c1=O (stereo not drawn) | 14 µL/min/1e6 cells | 0.12 µM | 2.5 | 4.04 µL/min/mg | 0.4 µM |  |  |  |  |  | 
3 | C#Cc1n[nH]c2c(-c3cn(C(C)c4ccccc4)c(=O)[nH]c3=O)cc(F)cc12 (stereo not drawn) |  |  | 3.3 |  | 0.031 µM | 1.95 µM | 14.2 ×10⁻⁶ cm/s | 4.27 µL/min/1e6 cells | 100% | 4.6 L/kg | 0.1
4 | C#Cc1n[nH]c2c(-c3cn(C(C)c4ccccc4)c(=O)[nH]c3=O)cccc12 (stereo not drawn) | 9.1 µL/min/1e6 cells |  | 3.2 | 12.8 µL/min/mg | 0.04 µM |  |  |  |  |  | 
5 | CC(c1ccc(F)cc1)n1cc(-c2cc(F)cc3cn[nH]c23)c(=O)[nH]c1=O (stereo not drawn) | 11.9 µL/min/1e6 cells |  | 2.7 | 5.61 µL/min/mg | 0.53 µM |  |  |  |  |  | 
6 | C#Cc1n[nH]c2c(-c3cn(C(C)c4ccccn4)c(=O)[nH]c3=O)cc(F)cc12 (stereo not drawn) |  |  | 2.5 |  | 0.055 µM |  | 37.9 ×10⁻⁶ cm/s | 1.29 µL/min/1e6 cells | 91% | 1.6 L/kg | 0.022
7 | CC(c1ccccc1)n1cc(-c2cc(F)cc(F)c2)c(=O)[nH]c1=O (stereo not drawn) | 123 µL/min/1e6 cells | 2.5 µM | 3.2 | 17.8 µL/min/mg |  |  |  |  |  |  | 
8 | CC(c1ccccc1)n1cc(-c2ccccc2)c(=O)[nH]c1=O (stereo not drawn) | 185 µL/min/1e6 cells | 3.9 µM | 2.7 | 50.1 µL/min/mg |  |  |  |  |  |  | 
9 | CC(c1cccc(-c2c[nH]cn2)c1)n1cc(-c2cc(F)cc(F)c2)c(=O)[nH]c1=O (stereo not drawn) | 6.03 µL/min/1e6 cells | 0.52 µM | 3.2 | 16.2 µL/min/mg |  |  |  |  |  |  | 
10 | C[C@@H](c1ccccc1)n1cc(-c2cc(F)cc(F)c2)c(=O)[nH]c1=O | 133 µL/min/1e6 cells | 0.92 µM | 3.1 | 7.68 µL/min/mg |  |  |  |  |  |  | 
11 | CC(c1ccccc1)n1cc(-c2cccc3c(C#N)n[nH]c23)c(=O)[nH]c1=O (stereo not drawn) | 41.4 µL/min/1e6 cells | 0.2 µM | 2.9 | 32.7 µL/min/mg | 0.5 µM |  |  |  |  |  | 
12 | CC(c1ccccc1)n1cc(-c2cccc3c(F)n[nH]c23)c(=O)[nH]c1=O (stereo not drawn) | 49.4 µL/min/1e6 cells | 0.24 µM | 3 | 32.4 µL/min/mg | 0.81 µM |  |  |  |  |  | 
13 | C[C@@H](c1ccc(F)cc1)n1cc(-c2cc(F)cc3c(C#N)n[nH]c23)c(=O)[nH]c1=O |  |  | 3.3 |  | 0.075 µM |  | 25.6 ×10⁻⁶ cm/s | 2.48 µL/min/1e6 cells | 96% | 1.5 L/kg | 0.014
14 | CC(c1ccccc1)n1cc(-c2ccc3[nH]ccc3c2)c(=O)[nH]c1=O (stereo not drawn) | 217 µL/min/1e6 cells | 0.52 µM | 2.9 | 25.4 µL/min/mg |  |  |  |  |  |  | 
15 | CC(c1cccc(-c2cn[nH]c2)c1)n1cc(-c2cc(F)cc(F)c2)c(=O)[nH]c1=O (stereo not drawn) | 22.3 µL/min/1e6 cells | 0.8 µM | 3.4 | < 3 µL/min/mg |  |  |  |  |  |  | 
